Literature values, collected in US10828278B2, “Tesofensine and beta blocker combination formulations” (SANIONA A/S, priority 2015, dated 2020).

Assays:
[1] = for half-life: in vivo
[2] = in vivo
[3] = long-term treatment, corrected for placebo and diet effects, obese patients

Row | Structure (SMILES) | half-life [1] [h] | sagittal diameter [2] | waist circumference [2] | weight loss [3] | serum half-life ([1]; serum)
1 | COc1ccccc1OCCNCC(O)COc1cccc2[nH]c3ccccc3c12 (racemic) [carvedilol, (±)-[3-(9H-carbazol-4-yloxy)-2-hydroxypropyl][2-(2-methoxyphenoxy)ethyl]amine] | 7 to 10 | – | – | – | –
2 | CCOC[C@@H]1[C@@H](c2ccc(Cl)c(Cl)c2)C[C@@H]2CC[C@H]1N2C [Tesofensine, (1R,2R,3S,5S)-3-(3,4-dichlorophenyl)-2-(ethoxymethyl)-8-methyl-8-azabicyclo[3.2.1]octane] | – | significantly decreases | significantly decreases | about 10% | nine
3 | COCCc1ccc(OCC(O)CNC(C)C)cc1 (stereo not drawn) [metoprolol, 1-(Isopropylamino)-3-[4-(2-methoxyethyl)-phenoxy]-propan-2-ol] | 3 to 4 | – | – | – | –
